Measured values reported in US20230227466A1, “SUBSTITUTED THIENOPYRIMIDINES THAT INTERACT WITH THE RAS SUPERFAMILY FOR THE TREATMENT OF CANCERS, INFLAMMATORY DISEASES, RASOPATHIES, AND FIBROTIC DISEASE” (SHY Therapeutics, LLC, priority 2020, published 2023).

What was measured:
[1] = system: Akt phosphorylation in Panc-1 cells; assay: Western AKT cell-based phosphorylation assay; parameters: species or system human; conditions: at 10 μM, values in brackets < > are activation %, not inhibition
How it was run: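 Panc-1 cells starved overnight in 0.5% FBS, exposed to compound at 10 μM (0.3% DMSO) for 6 h at 37° C, then stimulated with 1.5 ng/ml EGF for 15 min. Lysates probed by western blot with anti-phospho-Akt (Ser473), equal protein loading checked by Ponceau S.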

[2] = system: ERK1/2 phosphorylation in Panc-1 cells; assay: Western ERK1/2 cell-based phosphorylation assay; parameters: species or system human; conditions: at 10 μM, values in brackets < > are activation %, not inhibition
How it was run: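 Panc-1 cells starved overnight in 0.5% FBS, then exposed 6 h at 37 °C to compound at 10 μM final (0.3% DMSO) or serial dilutions for IC50. Stimulation with 1.5 ng/ml EGF for 15 min; phospho-ERK1/2 (Thr202/Tyr204) read by western blot on equal protein loads.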

Kinetic solubility assay = format: physicochemical; conditions: phosphate-buffered saline pH 7.4 with 2% DMSO, aqueous buffer, kinetic from dmso stock; pH 7.4 PBS + 2% DMSO, 25° C., two hours; effective range approximately 2-400 μM
Method: Equipment: Water purification system Millipore Milli-Q Gradient A10 (Millipore, France); Thermomixer R Block, 1.5 ml (Eppendorf, Germany; Cat #5355); Matrix Multichannel Electronic Pipette 2-125 μL, 5-250 μL, 15-1250 μL (Thermo Scientific, USA; Cat ##2011, 2012, 2004); SpectraMax Plus Microplate Reader (Molecular Devices, USA; Product #02196); Multi-Well Plate Vacuum Manifold (Pall Corporation, USA; Product #5014); and Vacuum pump (Millipore, USA; Model #XX5500000)
Analytical System: The measurements were performed using SpectraMax Plus reader in UV-Vis mode. Acquisition and analysis of the data were performed using SoftMax Pro v.5.4 (Molecular Devices) and Excel 2010 data analysis software.
Methods: Briefly, using a 20 mM stock solution of the compound in 100% DMSO dilutions were prepared to a theoretical concentration of 400 μM in duplicates in phosphate-buffered saline pH 7.4 (138 mM NaCl, 2.7 mM KCl, 10 mM K-phosphate) with 2% final DMSO. The experimental compound dilutions in PBS were further allowed to equilibrate at 25° C. on a thermostatic shaker for two hours and then filtered through HTS filter plates using a vacuum manifold. The filtrates of test compounds were diluted 2-fold with acetonitrile with 2% DMSO before measuring.
In parallel, compound dilutions in acetonitrile/PBS (1:1) were prepared to theoretical concentrations of 0 μM (blank), 10 μM, 25 μM, 50 μM, 100 μM, and 200 μM with 2% final DMSO to generate calibration curves. Ondansetron was used as reference compound to control proper assay performance. 200 μL of each sample was transferred to 96-well plate and measured in 200-550 nm range with 5 nm step.
The concentrations of compounds in PBS filtrate are calculated using a dedicated Microsoft Excel calculation script. Proper absorbance wavelengths for calculations are selected for each compound manually based on absorbance maximums (absolute absorbance unit values for the minimum and maximum concentration points within 0-3 OD range). Each of the final datasets is additionally visually evaluated by the operator and goodness of fit (R2) is calculated for each calibration curve. […] This method is not suitable for liquid (at 25° C.) substances (were not present among the tested compounds). Table 3A provides the kinetic solubility for some of the exemplified compounds.

solubility kinetic at 2 h (Kinetic solubility assay) [µM] | SMILES | % inh of AKT phosphorylation in PANC-1 [1] | % inh of ERK1/2 phosphorylation in PANC-1 [2]
268 | COCCCNc1nc(-c2nccn2C)nc2sc(-c3ccn(C(C)C)n3)c(C)c12 [Compound 36, 6-(1-Isopropyl-1H-pyrazol-3-yl)-N-(3-methoxypropyl)-5-methyl-2-(1-methyl-1H-imidazol-2-yl)thieno[2,3-d]pyrimidin-4-amine] | 0 (0% inhibition) | C (51-75% inhibition)
4 | COc1cc(Nc2nc(-c3nccn3C)nc3sc(-c4ccn(C(C)C)n4)c(C)c23)ncn1 [Compound 66, 6-(1-Isopropyl-1H-pyrazol-3-yl)-N-(6-methoxypyrimidin-4-yl)-5-methyl-2-(1-methyl-1H-imidazol-2-yl)thieno[2,3-d]pyrimidin-4-amine] | B (26-50% inhibition) | 0 (0% inhibition)
5 | CO[C@@H]1CC[C@H](Nc2nc(-c3nccn3C)nc3sc(-c4ccn(C(C)C)n4)c(-c4ccccc4)c23)C1 [Example 4, 6-(1-isopropyl-1H-pyrazol-3-yl)-N-((1S,3R)-3-methoxycyclopentyl)-2-(1-methyl-1H-imidazol-2-yl)-5-phenylthieno[2,3-d]pyrimidin-4-amine] | D (76-100% inhibition) | D (76-100% inhibition)
